The first assay has as its target Recombinant human LTC4 synthase (Homo sapiens (Human), UniProt Q16873). As to the kind of experiment: In vitro hLTC4 synthase enzyme assay (Test A). Format: biochemical. As to conditions: Test A (Examples 1-61); substrate LTA4, LTC4 detected by HTRF; median of at least two determinations. The procedure:
In Vitro hLTC4 Synthase Enzyme Assay (Test A)
Recombinant human LTC4 synthase is expressed in Piccia pastoralis and the purified enzyme is dissolved in 25 mM tris-buffer pH 7.8 supplemented with 0.1 mM glutathione (GSH) and stored at −80° C.
The buffer is used as background. Runs are performed in duplicates.
The reaction is stopped after 1 min by addition of double the reaction volume of a stop solution (MeOH:H2O:acetic acid 70:30:1).
After 15 fold dilution in PBS, LTC4 formation is detected with LTC4 HTRF kit (Cisbio, cat. No 64LC4PEC) and a fluorescence reader. Typically 6 μL of sample is mixed with 3 μL of each of the HTRF reagents d2 and k and analyzed as described in the kit manual.
In general terms: TR-FRET usually uses a lanthanide donor and a delayed reading to cut background.
Sequence of Recombinant human LTC4 synthase (Q16873 whole entry): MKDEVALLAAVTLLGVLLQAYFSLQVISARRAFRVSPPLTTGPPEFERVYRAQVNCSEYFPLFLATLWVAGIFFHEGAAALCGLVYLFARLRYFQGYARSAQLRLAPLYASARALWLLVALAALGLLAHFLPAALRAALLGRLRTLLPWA
Sequence of human recombinant purified LTC4 synthase (Q16873 whole entry): as above
Consider `COc1nc(C(=O)C2CC2C(=O)O)ncc1N(CC1CC1)c1ccc(Cl)c2ccccc12` (centres unmarked) [Example 56, 2-(5-((4-Chloronaphthalen-1-yl)(cyclopropylmethyl)amino)-4-methoxypyrimidine-2-carbonyl)cyclopropanecarboxylic acid], for which the IC50 was 17 nM.

As to `COc1cc(N(Cc2c(F)ccc(C)c2F)CC2CC2)cnc1C(=O)C1CC1C(=O)O` (centres unmarked) [Example 32, 2-(5-((Cyclopropylmethyl)(2,6-difluoro-3-methylbenzyl)amino)-3-methoxypicolinoyl)cyclopropanecarboxylic acid], the 50% inhibitory concentration (IC50) is 1670 nM.

For `COc1cc(N(CC2CC2)c2ccc(Cl)cc2)ccc1C(=O)C1CC1C(=O)O` (centres unmarked) [Example 49, 2-(4-((4-Chlorophenyl)(cyclopropylmethyl)amino)-2-methoxybenzoyl)cyclopropanecarboxylic acid], the IC50 was found to be 65 nM.

As to `COc1cc(N(Cc2cccc(C(F)(F)F)c2Cl)CC2CC2)cnc1C(=O)C1CC1C(=O)O` (centres unmarked) [Example 22, 2-(5-((2-Chloro-3-(trifluoromethyl)benzyl)(cyclopropylmethyl)amino)-3-methoxypicolinoyl)cyclopropanecarboxylic acid], the IC50 is 112 nM.

For `COc1nc(C(=O)C2CC2C(=O)O)ncc1N(CC1CC1)c1ccc(C)c2ccccc12` (centres unmarked) [Example 59, 2-(5-((Cyclopropylmethyl)(4-methylnaphthalen-1-yl)amino)-4-methoxypyrimidine-2-carbonyl)cyclopropanecarboxylic acid], the IC50 was found to be 18 nM.

`COc1cc(N(CC2(C(F)(F)F)CC2)c2ccc(Cl)cc2)cnc1C(=O)C1CC1C(=O)O` (centres unmarked) [Example 3, 2-(5-((4-Chlorophenyl)((1-(trifluoromethyl)cyclopropyl)methyl)amino)-3-methoxypicolinoyl)cyclopropanecarboxylic acid]: the IC50 came out at 149 nM.

As for `COc1cc(N(CC2CC2)c2ccc3c4c(cccc24)CC3)cnc1C(=O)C1CC1C(=O)O` (centres unmarked) [Example 36, 2-(5-((Cyclopropylmethyl)(1,2-dihydroacenaphthylen-5-yl)amino)-3-methoxypicolinoyl)cyclopropanecarboxylic acid], the IC50 was 9 nM.

As for `COc1cc(N(CC2CC2)c2cccc3ccccc23)ccc1C(=O)C1CC1C(=O)O` (centres unmarked) [Example 48, 2-(4-((Cyclopropylmethyl)(naphthalen-1-yl)amino)-2-methoxybenzoyl)cyclopropanecarboxylic acid], the IC50 amounted to 46 nM.

Consider `COc1cc(N(CC2CC2)c2ccc(C(F)(F)F)c3cccnc23)ccc1C(=O)C1CC1C(=O)O` (centres unmarked) [Example 53, 2-(4-((Cyclopropylmethyl)(5-(trifluoromethyl)quinolin-8-yl)amino)-2-methoxybenzoyl)cyclopropanecarboxylic acid], for which the IC50 was 152 nM.

For the molecule `COc1cc(N(CC2CC2)c2ccc3ccccc3c2)cnc1C(=O)C1CC1C(=O)O` (centres unmarked) [Example 12, 2-(5-((Cyclopropylmethyl)(naphthalen-2-yl)amino)-3-methoxypicolinoyl)cyclopropanecarboxylic acid], the IC50 turned out to be 28 nM.

With `COc1cc(N(Cc2ccc(C)c(F)c2F)CC2CC2)cnc1C(=O)C1CC1C(=O)O` (centres unmarked) [Example 33, 2-(5-((Cyclopropylmethyl)(2,3-difluoro-4-methylbenzyl)amino)-3-methoxypicolinoyl)cyclopropanecarboxylic acid], the IC50 was determined as 185 nM.

With `COc1cc(N(Cc2ccc3ccccc3c2)CC2CC2)cnc1C(=O)C1CC1C(=O)O` (centres unmarked) [Example 17, 2-(5-((Cyclopropylmethyl)(naphthalen-2-ylmethyl)amino)-3-methoxypicolinoyl)cyclopropanecarboxylic acid], the IC50 is 34 nM.

As to `COc1cc(N(CC2CC2)c2ccc(C(F)(F)F)c3cccnc23)cnc1C(=O)C1CC1C(=O)O` (centres unmarked) [Example 35, 2-(5-((Cyclopropylmethyl)(5-(trifluoromethyl)quinolin-8-yl)amino)-3-methoxypicolinoyl)cyclopropanecarboxylic acid], the IC50 was 229 nM.

With `COc1cc(N(CC2CC2)c2cccc3c(C(F)(F)F)cccc23)cnc1C(=O)C1CC1C(=O)O` (centres unmarked) [Example 37, 2-(5-((Cyclopropylmethyl)(5-(trifluoromethyl)naphthalen-1-yl)amino)-3-methoxypicolinoyl)cyclopropanecarboxylic acid], the IC50 was 25 nM.

Consider `COc1cc(N(Cc2c(C)ccc3ccccc23)CC2CC2)cnc1C(=O)C1CC1C(=O)O` (centres unmarked) [Example 23, 2-(5-((Cyclopropylmethyl)((2-methylnaphthalen-1-yl)methyl)amino)-3-methoxypicolinoyl)cyclopropanecarboxylic acid], for which the IC50 was determined as 1840 nM.

The next assay addresses human recombinant purified LTC4 synthase (Homo sapiens (Human), UniProt Q16873).
Experiment: not given
As to conditions: read-out: hLTC4 synthase IC50; Test B (Examples 62-65); substrate LTA4 methyl ester, product detected by LCMSMS; median of at least two determinations.
Turning to `COc1cc(N(CC(C)C)c2cc(C(F)(F)F)ccc2F)cnc1C(=O)[C@H]1C[C@@H]1C(=O)O` [Example 65, (1S,2S)-2-[(5-{[2-Fluoro-5-(trifluoromethyl)phenyl](2-methylpropyl)amino}-3-methoxypyridin-2-yl)carbonyl]cyclopropanecarboxylic acid], the IC50 worked out at 0.658 nM.

Consider `COc1nc(N(CC(C)(C)F)c2cc(C(F)(F)F)ccc2F)cnc1C(=O)[C@H]1C[C@@H]1C(=O)O` [Example 63, (1S,2S)-2-[(5-{(2-Fluoro-2-methylpropyl)[2-fluoro-5-(trifluoromethyl)phenyl]amino}-3-methoxypyrazin-2-yl)carbonyl]cyclopropanecarboxylic acid], for which the IC50 stood at 0.248 nM.

By IC50 is commonly meant the concentration that inhibits the measured activity by half.

The values above are taken from US20160326143A1, “COMPOUNDS AND USES” (AstraZeneca AB, priority 2015, published 2016).
